# Experimental data published in patent publication US11274103B2, “Compounds for the modulation of MYC activity” (Syros Pharmaceuticals, Inc., priority 2016, dated 2022).
# pIC50: −log10 of the molar value. Counter-ions that a name gives are not always drawn.
# Molecular target: T1, c-Myc/Max/Ebox DNA (Homo sapiens, UniProt P01106)
# T1 construct: his6 (cleaved yes)
# Test: c-Myc/Max/Ebox DNA AlphaScreen Assay
# Type: binding
# Settings: calculated IC50; free c-Myc 20 nM, his6-Max 5 nM, biotinylated Ebox oligo 10 nM; 2 hour incubation
# Experimental: Compounds of the invention were assayed for c-Myc/Max/EBox activity as described in the following protocol. Human his6-c-Myc and his6-Max were used with biotinylated DNA containing a single Ebox sequence (biotin[…] (SEQ ID NO: 1)) purchased from MWG Operon. Free c-Myc was generated from his6-c-Myc through thrombin cleavage of the his6 tag (SEQ ID NO: 2). For 384-well plate assays, 10 μL of a 2× solution of free c-Myc (20 nM final), Ni^2+ coated Acceptor Beads (25 μg/ml final), and biotinylated Ebox oligo (10 nM final) were added to 384-well plates with a Biotek EL406 liquid handler. 50 nL of compounds from stock plates were added by pin transfer using a Janus Workstation (PerkinElmer), allowing the compounds to interact with c-Myc prior to c-Myc binding with Max. In the current assay, DMSO was not allowed to exceed 2% v/v of the assay. 10 μl of 2× master mix containing streptavidin-coated donor beads (25 μg/ml final) and his6-Max (5 nM) were added. AlphaScreen measurements were performed on an Envision plate reader (PerkinElmer) utilizing the manufacturer's protocol.
# Both master mixes were made in room temperature assay buffer (50 mM HEPES, 150 mM NaCl, 0.2% w/v BSA, 0.02% w/v Tween20, 40 μg/ml glycogen, 500 μM DTT, pH 8.0, wherein both DTT and glycogen were added fresh). Alpha beads were added to respective master solutions. All subsequent steps were performed in low light conditions. Solution 1: 2× solution of components with final concentrations of c-Myc Ni-coated Acceptor Beads (25 μg/ml), and biotinylated Ebox oligo (10 nM). Solution 2: 2× solution of streptavidin-coated donor beads (25 μg/ml final) and his6-Max 10 μL. Solution 1 was added to 384-well plate (AlphaPlate-384, PerkinElmer) with Biotek EL406 liquid handler and the plates were centrifuged very briefly. 50 nL of compounds from stock plates were added by pin transfer using a Janus Workstation. Solution 2 (10 μL) was added with the liquid handler. Plates were sealed with foil to block light exposure and prevent evaporation. Plates were very briefly centrifuged followed by 2 hour incubation. AlphaScreen measurements were performed on an Envision 2104 utilizing the manufacturer's protocol. Excitation was at 680 nm for donor bead release of singlet oxygen and emission was read with a bandpass filter from 520-620 nm. Glycogen: Roche Diagnostics #10901393001. Plate 1536: Perkin Elmer, 6004350. Plate 384: Perkin Elmer, 6005350. Nickel-His Alpha Beads: 6760619R. The data from this assay are summarized in Table 2 below (Myc/Max/DNA Activity), where “A” represents a calculated IC50 of less than 500 nM; “B” represents a calculated IC50 of between 500 nM and 5 μM; “C” represents a calculated IC50 of between 5 μM and 10 μM; “D” represents a value of greater than 10 μM, and “NT” represents a compound for which an assay result was not obtained.
# T1 sequence (P01106 whole entry): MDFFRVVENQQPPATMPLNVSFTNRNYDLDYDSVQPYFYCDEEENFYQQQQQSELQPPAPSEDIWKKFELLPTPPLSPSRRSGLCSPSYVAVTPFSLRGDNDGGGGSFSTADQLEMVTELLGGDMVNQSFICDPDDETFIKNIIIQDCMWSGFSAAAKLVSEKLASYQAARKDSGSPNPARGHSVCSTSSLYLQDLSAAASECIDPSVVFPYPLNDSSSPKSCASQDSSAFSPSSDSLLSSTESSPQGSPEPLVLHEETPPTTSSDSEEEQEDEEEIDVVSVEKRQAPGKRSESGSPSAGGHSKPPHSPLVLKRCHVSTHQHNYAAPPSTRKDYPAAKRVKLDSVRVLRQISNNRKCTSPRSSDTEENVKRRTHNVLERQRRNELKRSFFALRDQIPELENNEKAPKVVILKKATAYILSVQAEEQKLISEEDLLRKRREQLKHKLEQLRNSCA
row,SMILES,pIC50
1,CC(C)NCCC(=O)Nc1sc2c(c1-c1nc(-c3cccnc3)cs1)CCNC2 [Compound 103],> 6.30
2,CC(C)NCCC(=O)Nc1sc2c(c1-c1nc(C3=CCNCC3)cs1)CCNC2 [Compound 126],> 6.30
3,Cc1ccncc1-c1csc(-c2c(NC(=O)CCNC(C)C)sc3c2CCNC3)n1 [Compound 123],5.30 to 6.30
4,"CC(C)NCCC(=O)Nc1sc2c(c1-c1nc(C(=O)Nc3cccnc3)cs1)CCNC2 [Compound 124, 2-(2-(3-(Isopropylamino)propanamido)-4,5,6,7-tetrahydrothieno[2,3-c]pyridin-3-yl)-N-(pyridin-3-yl)thiazole-4-carboxamide]",> 6.30
5,"CC(C)NCCC(=O)Nc1sc2c(c1-c1nc(C(=O)Nc3ccccc3)cs1)CCNC2 [Compound 113, 2-(2-(3-(isopropylamino)propanamido)-4,5,6,7-tetrahydrothieno[2,3-c]pyridin-3-yl)-N-phenylthiazole-4-carboxamide]",< 5.00
6,CC(C)NCCC(=O)Nc1sc2c(c1-c1nc(-c3ccc[nH]c3=O)cs1)CCNC2 [Compound 129],> 6.30
7,COc1cncc(-c2csc(-c3c(NC(=O)CCNC(C)C)sc4c3CCNC4)n2)c1 [Compound 119],> 6.30
8,COCCNCCC(=O)Nc1sc2c(c1-c1nc(-c3ccccn3)cs1)CCNC2 [Compound 110],5.30 to 6.30
9,CC(C)NCCC(=O)Nc1sc2c(c1-c1nc(-c3cnn(C)c3)cs1)CCNC2 [Compound 114],> 6.30
10,"CC(C)NCCC(=O)Nc1sc2c(c1-c1nc(-c3ccccn3)cs1)CCNC2 [Compound 104, 3-(Isopropylamino)-N-(3-(4-(pyridin-2-yl)thiazol-2-yl)-4,5,6,7-tetrahydrothieno[2,3-c]pyridin-2-yl)propanamide]",> 6.30
11,"CC(C)NCCC(=O)Nc1sc2c(c1-c1nc(C3=CCOCC3)cs1)CCNC2 [Compound 130, N-(3-(4-(3,6-Dihydro-2H-pyran-4-yl)thiazol-2-yl)-4,5,6,7-tetrahydrothieno[2,3-c]pyridin-2-yl)-3-(isopropylamino)propanamide dihydrochloride]",5.30 to 6.30

# The remaining lines, values ahead:
row,pIC50,SMILES
1,> 6.30,CC(C)NCCC(=O)Nc1sc2c(c1-c1nc(-c3cncnc3)cs1)CCNC2 [Compound 128]
2,< 5.00,"CC(=O)Nc1sc2c(c1-c1nc(-c3ccccc3)cs1)CCNC2 [Compound 100, N-(3-(4-phenylthiazol-2-yl)-4,5,6,7-tetrahydrothieno[2,3-c]pyridin-2-yl)acetamide]"
3,> 6.30,Cc1cncc(-c2csc(-c3c(NC(=O)CCNC(C)C)sc4c3CCNC4)n2)c1 [Compound 122]
4,> 6.30,COc1ncccc1-c1csc(-c2c(NC(=O)CCNC(C)C)sc3c2CCNC3)n1 [Compound 127]
5,> 6.30,CC(C)NCCC(=O)Nc1sc2c(c1-c1nc(-c3cncc(F)c3)cs1)CCNC2 [Compound 115]
6,5.30 to 6.30,"CC(C)NCCC(=O)Nc1sc2c(c1-c1nc(C(=O)O)cs1)CCNC2 [Compound 101, 2-(2-(3-(isopropylamino)propanamido)-4,5,6,7-tetrahydrothieno[2,3-c]pyridin-3-yl)thiazole-4-carboxylic acid]"
7,5.30 to 6.30,Cc1cn(-c2csc(-c3c(NC(=O)CCNC(C)C)sc4c3CCNC4)n2)cn1 [Compound 117]
